Several values for one entry are separate records, joined by “and”; a condition that tells them apart may be missing. Equal values may be shown once. Bridge positions count the residues as written; N and C are the ends. Ends that are not written are not given here.
Columns and labels:
Cercospora sojina [1] = assay: Microscopic observation of antifungal activity (light microscope, 20x); format: cell-based
Text: (§1) The presence of germinating conidia/mycelial fragments was observed under a light microscope at 20× magnification. […] (FIG. 3A).

Alternaria alternata [2] = assay: as above; format: cell-based; conditions: A. alternata; peptide at 3 μM
Text: as §1

Alternaria alternata [3] = assay: Antifungal MIC, 96-well plate spectrophotometric / resazurin cell viability assay; format: cell-based; conditions: Synthetic Fungal Medium
Procedure: (§2) The fungal strain of Botrytis cinerea T-4 was cultured in 20% V8 growth medium. Alternaria alternata was grown on potato dextrose agar. Fungal spores were harvested by flooding the fungal growth plates with sterile water. The spore suspension was filtered through two layers of Miracloth, centrifuged at 13,600 rpm for 1 min, washed, and re-suspended in low-salt Synthetic Fungal Medium (SFM) (U.S. Pat. No. 6,916,970). The spore suspension was adjusted to equivalent spore density using a hemocytometer.
Cercospora sojina and Alternaria alternata conidia were harvested from a fully grown culture plate by gently dislodging the conidia with an L-spreader in the presence of 5 ml sterile water. […]
Antifungal activity of NCR13_PFV1 and NCR13_PFV2 was assessed at different concentrations using a 2-fold dilution series of each peptide. Antifungal activity of each peptide was determined spectrophotometrically using the 96-well plate assay (Sagaram et al., (2011) PLoS One. doi: 10.1371/journal.pone.0018550; Sagaram et al., (2013). PLoS One. 2013 Dec. 4; 8(12):e82485. doi: 10.1371/journal.pone.0082485). […] The quantitative fungal growth inhibition was determined by measuring the absorbance at 595 nm using a microplate reader (Tecan Infinite M200 ProTecan Systems Inc., San Jose, CA) after 48 h. […]

B. cinerea = assay: Semi-in planta drop-inoculation assay, gray mold on detached N. benthamiana leaves; format: in vivo, Botrytis cinerea; conditions: for inhibition of gray mold disease symptoms: 3 μM
Text: FIG. 4 depicts a drop-inoculation assay showing semi-in planta antifungal activity of NCR13_PFV1 and NCR13_PFV2 in detached N. benthemiana leaves.
In semi-in-planta studies, detached leaves of N. benthamiana, were used to check the potential of both NCR13_PFV1 and NCR13_PFV2 to reduce gray mold disease symptoms caused by B. cinerea (FIG. 4).

S. sclerotiorum 555 [4] = assay: Semi-in planta antifungal assay on detached soybean leaves; format: in vivo, Sclerotinia sclerotiorum; conditions: 2 dpi
Procedure: Representative pictures (under white light and with CropReporter based on the value of potential photosynthetic efficiency Fv/Fm) taken 48 h post-infection showing the antifungal activity of NCR13_PFV1.
(§3) For the semi-in planta antifungal assays, a 1 mm plug was taken from the leading edge of freshly cultured 2-day old fungal colony from PDA media and placed on approximately 3-4 weeks of age detached soybean leaves and pods (6 weeks of age). Then, 40 μL solution of NCR13_PFV1 at various concentrations or water was applied immediately on the plug and were allowed to incubate under high humidity for 2-3 days prior to assessment. The severity of disease lesions on each leaf was assessed using the CropReporter system as described in Li et al. Mol Plant Microbe Interact. 2019; 32:1649-1664. doi: 10.1094/MPMI-08-19-0224-R. Epub 2019 Oct. 28. PMID: 31425003. In addition, high-resolution fluorescence images were taken using CropReporter (PhenoVation, Wageningen, Netherlands).

S. sclerotiorum 555 [5] = assay: Semi-in planta antifungal assay on detached soybean pods; format: in vivo, Sclerotinia sclerotiorum; conditions: 3 dpi
Procedure: Representative pictures taken 72 h post-infection showing the antifungal activity of NCR13_PFV1.
as §3
Detached soybean pods from 6-week-old plants were infected with 1 mm plug of S. sclerotiorum 555 followed by the application of a drop of NCR13_PFV1 on the plug. […] We observed that NCR13_PFV1 confers fungicidal activity with 100% protection against S. sclerotiorum 555 at 3 dpi (FIG. 6).

Botrytis cinerea [6] = assay: Antifungal MIC, 96-well plate spectrophotometric / resazurin cell viability assay; format: cell-based; conditions: for SFM + 2 mM CaCl2 (antifungal activity/MIC): SFM supplemented with 2 mM CaCl2; for SM + 100 mM NaCl (antifungal activity/MIC): medium supplemented with 100 mM NaCl
Procedure: as §2
Antifungal activity of NCR13_PFV1 and NCR13_PFV2 was assessed at different concentrations using a 2-fold dilution series of each peptide. Antifungal activity of each peptide was determined spectrophotometrically using the 96-well plate assay (Sagaram et al., (2011) PLoS One. doi: 10.1371/journal.pone.0018550; Sagaram et al., (2013). PLoS One. 2013 Dec. 4; 8(12):e82485. doi: 10.1371/journal.pone.0082485). Forty-five microliters of each peptide at different concentrations was added to each well of the microtiter plate containing 45 μL of ˜10^5 spores/ml spore suspension. The quantitative fungal growth inhibition was determined by measuring the absorbance at 595 nm using a microplate reader (Tecan Infinite M200 ProTecan Systems Inc., San Jose, CA) after 48 h. The fungal cell viability was determined by the resazurin cell viability assay (Li et al., 2019, MPMI 32, 1649-1664; Velivelli et al., 2020, doi.org/10.1073/pnas.2003526117). After incubation of the pathogen/peptide mixture for 48 h, […] 0.1% resazurin solution was added to each well. After incubation of the mixture overnight, a change in the color of the resazurin dye from blue to pink or colorless indicated the presence of live fungal cells. The MIC for each peptide was the lowest concentration of each peptide at which no change in blue color occurred. Using this protocol, the MIC value of NCR13_PFV1 and NCR13_PFV2 was also determined in presence of 100 mM NaCl and 2 mM CaCl2).
The MIC of NCR13_PFV1 and NCR13_PFV2 against B. cinerea was determined (Table 3). MIC assays were carried out in 2×SFM. […] We therefore determined antifungal activity of NCR13_PFV1 and NCR13_PFV2 in SFM supplemented with 100 mM NaCl or 2 mM CaCl2) (Table 3).

[7] = system: Sclerotinia sclerotiorum 555; assay: In vitro antifungal activity, 24-well plate mycelial plug assay; format: cell-based; conditions: 2 dpi; for SFM MIC: Sclerotinia sclerotiorum 555
Procedure: Sclerotinia sclerotiorum (S. sclerotiorum) 555 fungal cultures were grown on potato dextrose agar (PDA) medium (Difco Laboratories Inc., Detroit, MI, USA) at room temperature.
The antifungal activity of NCR13_PFV1 against S. sclerotiorum 555 was measured in an in vitro assay using 24-wells plate assay. Mycelial plugs (1 mm in diameter) cut from the margin of two day-old actively growing colony were transferred from potato dextrose agar media to a series of wells containing 125 microliter (L) of 2×SFM medium (U.S. Pat. No. 6,916,970), with 125 μL of NCR13_PFV1 at varying concentrations of 3, 6, 12 and 24 μM. The plates were incubated at room temperature for 2 days prior to assessment. The mycelium diameter growth was measured 2 dpi using ImageJ software. NCR13 PFV1 peptide effects were calculated as a percentage from the difference between growth of the control and treated mycelium using the formula:
IG (%)=(Dc−Dt)/Dc×100; where IG is inhibition of growth, Dc is the mycelium diameter (mm) of the control and Dt is the mycelium diameter (mm) of the peptide-treated dishes.

Botrytis cinerea [8] = assay: Tomato fruit infection assay, drop inoculation; format: in vivo; conditions: for control of B. cinerea growth in tomato fruits: 0.75 μM peptide, 5 dpi; for visible fungal growth on tomato fruits: B. cinerea, 0.75 μM peptide applied 12 hpi, 3 dpi
Procedure: Antifungal activity assays were performed on commercially available tomato fruits. A total of 36 tomato fruits (12 fruits per treatment) were washed with 0.01% bleach and rinsed three times with sterile distilled water. Carborundum Powder (Fisher Chemical, USA) was gently rubbed on the fruit surface to create microinjuries. The fruits were inoculated with 20 μl B. cinerea conidia (1×10^5 conidia ml-1) via drop inoculation. Conidia of B. cinerea were prepared as described above. Fruits were incubated in a Ziploc weather shield box containing moist paper towels to maintain high humidity after drop inoculation. 20 μl of peptide solution (0.75 μM of NCR13_PFV1 or NCR13_PFV2) was applied to the drop inoculated conidial suspension at 12 hours post-inoculation (hpi) and incubated for 5 days.

Cercospora sojina [9] = assay: Antifungal MIC, 96-well plate spectrophotometric / resazurin cell viability assay; format: cell-based; conditions: Synthetic Fungal Medium
Procedure: Cercospora sojina and Alternaria alternata conidia were harvested from a fully grown culture plate by gently dislodging the conidia with an L-spreader in the presence of 5 ml sterile water. To remove mycelial fragments, the spore suspension was filtered through three layers of miracloth and washed twice with sterile water at 13,000 rpm for 2 minutes. The spore concentration was adjusted to 1×10^5 spores/ml using a hemocytometer.
Antifungal activity of NCR13_PFV1 and NCR13_PFV2 was assessed at different concentrations using a 2-fold dilution series of each peptide. Antifungal activity of each peptide was determined spectrophotometrically using the 96-well plate assay (Sagaram et al., (2011) PLoS One. doi: 10.1371/journal.pone.0018550; Sagaram et al., (2013). PLoS One. 2013 Dec. 4; 8(12):e82485. doi: 10.1371/journal.pone.0082485). Forty-five microliters of each peptide at different concentrations was added to each well of the microtiter plate containing 45 μL of ˜10^5 spores/ml spore suspension. The quantitative fungal growth inhibition was determined by measuring the absorbance at 595 nm using a microplate reader (Tecan Infinite M200 ProTecan Systems Inc., San Jose, CA) after 48 h. The fungal cell viability was determined by the resazurin cell viability assay (Li et al., 2019, MPMI 32, 1649-1664; Velivelli et al., 2020, doi.org/10.1073/pnas.2003526117). […]

Row | Substance | concentration at which C. sojina growth was inhibited (microscopy) (Cercospora sojina [1]) | conidial germination / mycelial growth under the microscope (Alternaria alternata [2]) | SFM MIC (Alternaria alternata [3]) | activity against gray mold disease relative to NCR13_PFV2 (B. cinerea) | inhibition of gray mold disease symptoms (B. cinerea) | lesion size (S. sclerotiorum 555 [4]) | protection against S. sclerotiorum 555 (S. sclerotiorum 555 [5]) | lesion or decay development (S. sclerotiorum 555 [5]; compared to water control) | antifungal activity of NCR13_PFV1 relative to NCR13_PFV2 (from MIC) (Botrytis cinerea [6]) | SFM + 2 mM CaCl2 (antifungal activity/MIC) (Botrytis cinerea [6]) | SM + 100 mM NaCl (antifungal activity/MIC) (Botrytis cinerea [6]) | S. sclerotiorum 555 mycelial growth in vitro ([7]; 3, 6, 12 and 24 μM) | SFM MIC [7] | control of B. cinerea growth in tomato fruits (Botrytis cinerea [8]) | control of B. cinerea growth in tomato fruits (Botrytis cinerea [8]; listed as NCR13 PFV1) | visible fungal growth on tomato fruits (Botrytis cinerea [8]) | SFM MIC (Cercospora sojina [9]) | fold higher inhibitory concentration versus the other folding variant (Cercospora sojina [1]; C. sojina) | SFM MIC (Botrytis cinerea [6]; Synthetic Fungal Medium, 48 h, resazurin)
1 | NCR13_PFV1: NCR13-Ala peptide (SEQ ID NO: 2) expressed in Pichia pastoris, HPLC Peak1 folding variant (ATKPCQSDKDCKKFACRKPKVPKCINGFCKCVR; disulfide 11-29, 16-31, 5-24) | 0.18 µM | complete inhibition of conidial germination | 0.75 µM | two-fold higher activity | completely inhibitory | significantly decreased lesion sizes | 100% | no lesion or decay development | fourfold or greater | Inactive | Inactive | progressively reduced in size with increasing concentrations | 6 µM and 6.0 µM | effective in controlling B. cinerea fungal growth | effective | no visible fungal growth |  |  | 
2 | NCR13_PFV2: NCR13-Ala peptide (SEQ ID NO: 2) expressed in Pichia pastoris, HPLC Peak2 folding variant (ATKPCQSDKDCKKFACRKPKVPKCINGFCKCVR; not fully specified; cysteine pairing not given here) | 3 µM | significant mycelial growth | 3 µM and 3.0 µM |  | only partially inhibitory |  |  |  |  | Inactive | Inactive |  | 24.0 µM |  |  | visible fungal growth | 1.5 µM | ~17 | 1.5 µM
